# Reference: patent publication US7871805B2, “Glucose dehydrogenase” (Toyo Boseki Kabushiki Kaisha, priority 2006, dated 2011)
# Like-named read-outs stand apart in the source and are kept apart here.
# What was measured:
# [1] = test system: GDH derived from NBRC6231; experiment: Substrate specificity of purified GDH (DCPIP activity assay); type: biochemical, Penicillium lilacinoechinulatum; conditions: for Relative activity: substrate final concentration 4 mM, activity using glucose as substrate made 100%; for action of enzyme upon substrate (in words): substrate 4 mM
# Protocol: (§1) The present invention is also characterized by high substrate specificity, the action upon maltose is less than 1% of the action upon glucose, and the action upon galactose is less than 2% of the action upon glucose. The action referred to herein indicates the GDH activity at a substrate concentration of 4 mM, it is measured according to Test Example described later, and in a reaction solution composition used, for the substrate concentration, the final concentration is adjusted to 4 mM.
# (§2) A reaction reagent is made by mixing 15.8 mL of the PIPES buffer, 0.2 mL of the DCPIP solution and 4 mL of the D-glucose solution.
# (§3) The reaction reagent (2.9 mL) is preliminarily heated at 37° C. for 5 minutes. The GDH solution (0.1 mL) is added and gently mixed, subsequently the change of absorbance at 600 nm is recorded for 5 minutes using a spectrophotometer controlled to 37° C. using water as a control, and the change of absorbance per one minute (ΔODTEST) is calculated from a linear portion of the record. The solvent in which GDH will be dissolved in place of the blinded GDH solution is added to the reagent mixture, and the change of absorbance (ΔODBLANK) per one minute is measured. The GDH activity is calculated from these values according to the following formula. One unit (U) in the GDH activity is defined as the amount of the enzyme which reduces 1 μmol DCPIP for one minute in the presence of 200 mM D-glucose. Activity (U/mL)=[—(ΔODTEST−ΔODBLANK)×3.0×dilution scale]/(16.3×0.1×1.0)
# (§4) In order to know the substrate specificity of the purified GDH solutions derived from NBRC6231 and NBRC32032 obtained in Example 1, the activity was measured using the reaction reagent in which the substance shown in Table had been dissolved at a final concentration of 4 mM.
# [2] = test system: GDH derived from NBRC32032; experiment: as above; type: biochemical, Penicillium italicum; conditions: for Relative activity: substrate final concentration 4 mM, activity using glucose as substrate made 100%; for action of enzyme upon substrate (in words): substrate 4 mM
# Protocol: as §1, §2, §3, §4
# [3] = test system: GDH derived from NBRC6231; experiment: Effects of chemicals on GDH activity; type: biochemical, Penicillium lilacinoechinulatum
# [4] = test system: GDH derived from NBRC32032; experiment: Effects of chemicals on GDH activity; type: biochemical, Penicillium italicum
# [5] = 2 mM, inhibited = 10% or more activity lowering, strong = 50% or more, GDH from NBRC6231
# [6] = additive final concentration 2 mM, activity with no chemical made 100, GDH from NBRC6231
# [7] = 2 mM, inhibited = 10% or more activity lowering, strong = 50% or more, GDH from NBRC32032
# [8] = additive final concentration 2 mM, activity with no chemical made 100, GDH from NBRC32032
compound,measurement,setting,value
OC[C@H]1O[C@H](O[C@H]2[C@H](O)[C@@H](O)C(O)O[C@@H]2CO)[C@H](O)[C@@H](O)[C@@H]1O (mixture of isomers) [Maltose],Relative activity,[1],0.5%
same,Relative activity,[2],0.2%
O=CC[C@@H](O)[C@H](O)[C@H](O)CO [2-deoxy-D-glucose],action of enzyme upon substrate (in words),[1],acted upon
same,Relative activity,[1],14.3%
same,action of enzyme upon substrate (in words),[2],acted upon
same,Relative activity,[2],17.2%
"O=[N+]([O-])[O-].[Ag+] [AgNO3, silver nitrate]",inhibitory effect (in words),[3]; [5],strong inhibitory effect
same,Relative activity,[3]; [6],20.9
same,Relative activity,[4],15.0
same,inhibitory effect (in words),[4],strong inhibitory effect
O=C[C@@H](O)[C@H](O)[C@H](O)CO [Arabinose],Relative activity,[1],0.2%
same,Relative activity,[2],0.2%
CC(=O)[O-].CC(=O)[O-].[Ba+2] [Ba(OAc)2],Relative activity,[3]; [6],106
same,Relative activity,[4],106
OB(O)O [Borate],Relative activity,[3]; [6],111
same,Relative activity,[4],102
[Ca+2].[Cl-].[Cl-] [CaCl2],Relative activity,[3]; [6],103
same,Relative activity,[4],103
"CC(=O)[O-].CC(=O)[O-].[Cd+2] [Cd(OAc)2, cadmium acetate]",inhibitory effect (in words),[3]; [5],strong inhibitory effect
same,Relative activity,[3]; [6],41.0
same,Relative activity,[4],41.4
same,inhibitory effect (in words),[4],strong inhibitory effect
[Cl-].[Cl-].[Co+2] [CoCl2],Relative activity,[3],94.1
same,Relative activity,[4],102
"O=S(=O)([O-])[O-].[Cu+2] [CuSO4, copper sulfate]",inhibitory effect (in words),[3]; [5],strong inhibitory effect
same,Relative activity,[3]; [6],2.2
same,Relative activity,[4],4.5
same,inhibitory effect (in words),[4],strong inhibitory effect
O=C(O)CN(CCN(CC(=O)O)CC(=O)O)CC(=O)O [EDTA],Relative activity,[3],113
same,Relative activity,[4],104
"[Cl][Fe]([Cl])[Cl] [FeCl3, iron chloride (III)]",Relative activity,[3],106
same,Relative activity,[4],77.5
same,inhibitory effect (in words),[4]; 2 mM,inhibited
O=C(CO)[C@@H](O)[C@H](O)[C@H](O)CO [Fructose],Relative activity,[1],0.2%
same,Relative activity,[2],0.3%
O=C[C@H](O)[C@@H](O)[C@@H](O)[C@H](O)CO [Galactose],Relative activity,[1],1.0%
same,Relative activity,[2],0.6%
OCC(O)CO [Glycerin],Relative activity,[1],0.1> %
same,Relative activity,[2],1.7%
NO [Hydroxylamine],inhibitory effect (in words),[3]; [5],inhibitory effect
same,Relative activity,[3]; [6],81.5
same,inhibitory effect (in words),[4]; [7],inhibitory effect
same,Relative activity,[4]; [8],79.1
NC(=O)CI [Iodoacetamide],Relative activity,[3],111
same,Relative activity,[4],101
OC[C@H]1O[C@H](O[C@H]2[C@H](O)[C@@H](O)[C@@H](O[C@H]3[C@H](O)[C@@H](O)[C@@H](O[C@H]4[C@H](O)[C@@H](O)C(O)O[C@@H]4CO)O[C@@H]3CO)O[C@@H]2CO)[C@H](O)[C@@H](O)[C@@H]1O (stereo partly shown) [Maltotetraose],Relative activity,[1],0.1> %
same,Relative activity,[2],1.6%
OC[C@H]1O[C@@](CO)(O[C@H]2O[C@H](CO)[C@@H](O)[C@H](O)[C@H]2O)[C@@H](O[C@H]2O[C@H](CO)[C@@H](O)[C@H](O)[C@H]2O)[C@@H]1O [Melezitose],Relative activity,[1],0.2%
same,Relative activity,[2],0.5%
[Cl-].[Cl-].[Mg+2] [MgCl2],Relative activity,[3]; [6],99.7
same,Relative activity,[4],102
[Cl][Mn][Cl] [MnCl2],Relative activity,[3]; [6],93.4
same,Relative activity,[4],99.1
O=C(O)CI [Monoiodoacetic acid],Relative activity,[3],68.7
same,inhibitory effect (in words),[3],inhibitory effect
same,Relative activity,[4],73.3
same,inhibitory effect (in words),[4],inhibitory effect
CCN1C(=O)C=CC1=O [N-ethylmaleimide],inhibitory effect (in words),[3]; [5],inhibitory effect
same,Relative activity,[3]; [6],86.8
same,inhibitory effect (in words),[4]; [7],inhibitory effect
same,Relative activity,[4]; [8],87.8
[F-].[Na+] [NaF],Relative activity,[3]; [6],111
same,Relative activity,[4],102
"[N-]=[N+]=[N-].[Na+] [NaN3, sodium azide]",inhibitory effect (in words),[3]; [5],inhibited
same,Relative activity,[3]; [6],89.3
same,Relative activity,[4],97.8
[Cl][Ni][Cl] [NiCl2],Relative activity,[3]; [6],96.6
same,Relative activity,[4],101
O=C[C@H](O)[C@H](O)[C@H](O)CO [Ribose],Relative activity,[1],0.1> %
same,Relative activity,[2],0.2%
O=C(CO)[C@H](O)[C@@H](O)[C@H](O)CO [Sorbose],Relative activity,[1],0.1> %
same,Relative activity,[2],0.5%
OC[C@H]1O[C@@](CO)(O[C@H]2O[C@H](CO)[C@@H](O)[C@H](O)[C@H]2O)[C@@H](O)[C@@H]1O [Sucrose],Relative activity,[1],0.6%
same,Relative activity,[2],1.1%
OC[C@H]1O[C@H](O[C@H]2O[C@H](CO)[C@@H](O)[C@H](O)[C@H]2O)[C@H](O)[C@@H](O)[C@@H]1O [Trehalose],Relative activity,[1],0.3%
same,Relative activity,[2],0.1> %
O=C[C@H](O)[C@@H](O)[C@H](O)CO [Xylose],action of enzyme upon substrate (in words),[1],acted upon
same,Relative activity,[1],10.1%
same,action of enzyme upon substrate (in words),[2],acted upon
same,Relative activity,[2],10.4%
[Cl-].[Cl-].[Zn+2] [ZnCl2],Relative activity,[3]; [6],76.2
same,Relative activity,[4],75.1
c1cnc2c(c1)ccc1cccnc12 [o-phenanthroline],Relative activity,[3],106
same,Relative activity,[4],103
"c1ccc(-c2ccccn2)nc1 [α,α′-dipyridyl]",Relative activity,[3],109
same,Relative activity,[4],102
Maltotriose,Relative activity,[1],0.2%
same,Relative activity,[2],1.0%
